This note sets out measurements from patent US20250304537A1 (Repare Therapeutics Inc., priority 2022, published 2025).

Where two headings read alike, the source gives them in different places.

The IC50 is the concentration that gives 50% inhibition.

Assay [1] concerns the target recombinant human Myt1 (full length PKMYT1) (Homo sapiens (Human), UniProt Q99640). Kind of assay: Recombinant human Myt1 kinase assay (ADP-Glo). Particulars: 10 μM ATP. The assay is classed as biochemical. In outline: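 ADP-Glo luminescence measured ATP hydrolysis by recombinant full-length PKMYT1 (18 nM) after 60 min at 30 °C with 10 μM ATP. Compounds in 0.5% DMSO were added to the enzyme 15 min before ATP, at 22 °C, in HEPES/MgCl2/MnCl2 buffer. IC50 and percent maximal inhibition were derived.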

Assay [2] has as its system PKMYT1 (CDK1 pThr14) in FUOV1 cells. The assay can be described thus: PKMYT1 cell-based activity assay, CDK1 pThr14 AlphaLISA in FUOV1 cells. The following applies: read-out: FUOV-1 CDK1 pThr14 IC50. In outline:
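IC50 was derived from AlphaLISA signal (excitation 680 nm, emission 615 nm) for phospho-Thr14 CDK1 in lysates. The detection antibodies were rabbit anti-pThr14 and mouse anti-total CDK1, each at 5 nM. FUOV1 ovarian cells were exposed to compound for 2 hours before lysis.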

recombinant human Myt1 (full length PKMYT1), sequence (Q99640 whole entry): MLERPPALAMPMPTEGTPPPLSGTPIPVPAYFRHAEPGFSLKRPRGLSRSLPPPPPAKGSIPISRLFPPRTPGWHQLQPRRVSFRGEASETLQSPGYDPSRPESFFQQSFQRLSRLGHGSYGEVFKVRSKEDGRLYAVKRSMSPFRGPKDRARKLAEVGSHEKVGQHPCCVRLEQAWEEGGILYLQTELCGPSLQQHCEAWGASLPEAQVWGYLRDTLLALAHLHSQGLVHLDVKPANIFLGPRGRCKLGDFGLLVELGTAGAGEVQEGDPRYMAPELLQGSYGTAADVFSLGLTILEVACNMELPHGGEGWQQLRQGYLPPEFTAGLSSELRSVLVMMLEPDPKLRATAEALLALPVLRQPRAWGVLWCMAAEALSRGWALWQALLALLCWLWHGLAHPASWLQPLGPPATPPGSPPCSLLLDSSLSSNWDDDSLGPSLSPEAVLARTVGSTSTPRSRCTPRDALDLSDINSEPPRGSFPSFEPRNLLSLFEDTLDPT

Regarding `Cc1ccc2[nH]ncc2c1-c1nc(-c2cccnc2NC(C)(C)C2CCCO2)nc(C(N)=O)c1N` (stereo not drawn) [Compound 881], the IC50 in assay [1] was less than 3 nM; in assay [2] (2 h, 2 hours with compound), 789 nM.

For `Cc1ccc2[nH]ncc2c1-c1cc(-c2ccnc(S(C)(=O)=O)n2)nc(C(N)=O)c1N` [Compound 168], the 50% inhibitory concentration (IC50) in assay [1] stood at 29 nM; in assay [2] (2 h, 2 h incubation), 7590 nM.

For `Cc1ccc2[nH]ncc2c1-c1nc(-c2ccccc2NC(=O)C2(C3CC3)CC2)nc(C(N)=O)c1N` [Compound 478], the IC50 was 6 nM in assay [1] and 80 nM in assay [2] (2 h, 2 h compound incubation).

In the case of `Cc1ccc2[nH]ncc2c1-c1nc(-c2ccccc2C(O)c2ccccn2)nc(C(N)=O)c1N` (stereo not drawn) [Compound 788], the IC50 in assay [1] was 44 nM; in assay [2] (2 h, 2 h compound incubation) it was 1270 nM.

Take `Cc1ccc2[nH]ncc2c1-c1cc(-c2ccnc(OC[C@H](N)c3ccccc3)n2)nc(C(N)=O)c1N` [Compound 342]: the half-maximal inhibitory concentration (IC50) in assay [1] worked out at 3 nM; in assay [2] (2 h, 2 h incubation) it was 6 nM.

For the molecule `Cc1ccc2[nH]ncc2c1-c1nc(-c2cc(F)cnc2NC2(C(F)(F)F)CC2)nc(C(N)=O)c1N` [Compound 908], the IC50 was less than 3 nM in assay [1] and 95 nM in assay [2] (2 h, 2 hours with compound).

For `Cc1ccc(O)c(C)c1-c1cc(-c2cc(F)cc(F)c2)nc(C(N)=O)c1N` [Compound 16, 3-amino-6-(3,5-difluorophenyl)-4-(3-hydroxy-2,6-dimethylphenyl)picolinamide], the half-inhibitory concentration (IC50) turned out to be 5 nM in assay [1] and 575 nM in assay [2] (2 h, 2 h incubation).

With `Cc1ccc(O)c(C)c1-c1cc(-c2ccc(C(F)(F)F)cc2)nc(C(N)=O)c1N` [Compound 15], the IC50 in assay [1] worked out at 20 nM; in assay [2] (2 h, 2 h incubation) it was 2520 nM.

Take `Cc1ccc2[nH]ncc2c1-c1nc(-c2cc(F)c(F)cc2NCC(F)F)nc(C(N)=O)c1N` [Compound 467]: the IC50 in assay [1] came to 6 nM; in assay [2] (2 h, 2 h compound incubation), 106 nM.

Turning to `Cc1ccc2[nH]ncc2c1-c1nc(-c2cccc3ncsc23)nc(C(N)=O)c1N` [Compound 380], the IC50 in assay [1] is 6 nM; in assay [2] (2 h, 2 h incubation) it was 772 nM.

For `Cc1ccc2[nH]ncc2c1-c1cc(-c2ccnc(OC(C)C)n2)nc(C(N)=O)c1N` [Compound 160, 3-amino-6-(2-isopropoxypyrimidin-4-yl)-4-(5-methyl-1H-indazol-4-yl)picolinamide], the IC50 in assay [1] is 7 nM; in assay [2] (2 h, 2 h incubation) it was 388 nM.

With `Cc1ccc2[nH]ncc2c1-c1nc(-c2ccccc2NC(C)C(F)(F)F)cc(C(N)=O)c1N` (stereo not drawn) [Compound 406], the half-maximal inhibitory concentration (IC50) in assay [1] was determined as 5 nM; in assay [2] (2 h, 2 h compound incubation), 53 nM.

With `Cc1ccc(O)c(C)c1-c1cc(-c2ccncn2)nc(C(N)=O)c1N` [Compound 89], the IC50 was determined as 3 nM in assay [1] and 16 nM in assay [2] (2 h incubation).

Consider `Cc1ccc(O)cc1-c1nc(-c2ccnc(N)c2)nc(C(N)=O)c1N` [Compound 4], for which the IC50 came to 10 nM in assay [1] and 943 nM in assay [2] (2 h, 2 h incubation).

Consider `Cc1ccc(O)c(C)c1-c1cc(-c2cncs2)nc(C(N)=O)c1N` [Compound 90], for which the figures for the IC50 in assay [1] and in assay [2] (2 h incubation) were 3 nM and 58 nM, respectively.

Consider `Cc1ccc2[nH]ncc2c1-c1nc(-c2cc(F)ccc2NS(=O)(=O)C2CC2)nc(C(N)=O)c1N` [Compound 481], for which the half-inhibitory concentration (IC50) amounted to 2 nM in assay [1] and 83 nM in assay [2] (2 h, 2 h compound incubation).

For the molecule `Cc1ccc(NC(=O)C2(C)CC2)c(-c2nc(C(N)=O)c(N)c(-c3c(C)ccc4[nH]ncc34)n2)c1` [Compound 437], the IC50 in assay [1] is 8 nM; in assay [2] (2 h, 2 h compound incubation), 59 nM.

On to `Cc1ccc2[nH]ncc2c1-c1nc(-c2ccccc2NC(=O)C2(C)COC2)nc(C(N)=O)c1N` [Compound 408], for which the IC50 came to 7 nM in assay [1] and 9 nM in assay [2] (2 h, 2 h compound incubation).

With `Cc1ccc(O)c(C)c1-c1cc(Cl)nc(C(N)=O)c1N` [Compound 17], the IC50 in assay [1] is 36 nM; in assay [2] (2 h, 2 h incubation) it was 8670 nM.

For `Cc1ccc2[nH]ncc2c1-c1cc(-c2cccc(OC3CCCOC3)n2)nc(C(N)=O)c1N` (stereo not drawn) [Compound 306], the IC50 in assay [1] stood at 7 nM; in assay [2] (2 h, 2 h incubation), 449 nM.

On to `Cc1ccc(-c2nc(C(N)=O)c(N)c(-c3c(C)ccc4[nH]ncc34)n2)c(Nc2nccnc2C)n1` [Compound 658], for which the half-maximal inhibitory concentration (IC50) in assay [1] turned out to be 5 nM; in assay [2] (2 h, 2 h compound incubation), 8 nM.

Take `Cc1ccc2[nH]ncc2c1-c1nc(-c2cc(F)cnc2NC2CCOC(C(F)(F)F)C2)nc(C(N)=O)c1N` (stereo not drawn) [Compound 873]: the IC50 in assay [1] worked out at 19 nM; in assay [2] (2 h, 2 hours with compound) it was 862 nM.

In the case of `Cc1ccc(O)c(C)c1-c1cc(-c2cccc(C(N)=O)c2)nc(C(N)=O)c1N` [Compound 51], the IC50 is 8 nM in assay [1] and 357 nM in assay [2] (2 h, 2 h incubation).

Regarding `COC[C@@H](C)Oc1nccc(-c2cc(-c3c(C)ccc4[nH]ncc34)c(N)c(C(N)=O)n2)n1` [Compound 204], the half-inhibitory concentration (IC50) in assay [1] is 6 nM; in assay [2] (2 h, 2 h incubation), 205 nM.

In the case of `Cc1ccc2[nH]ncc2c1-c1nc(-c2ccccc2NC(C)(C)C)nc(C(N)=O)c1N` [Compound 451], the IC50 was found to be 7 nM in assay [1] and 104 nM in assay [2] (2 h, 2 h compound incubation).

Consider `Cc1cncnc1Nc1cc(F)ccc1-c1nc(C(N)=O)c(N)c(-c2c(C)ccc3[nH]ncc23)n1` [Compound 617], for which the half-inhibitory concentration (IC50) in assay [1] was 4 nM; in assay [2] (2 h, 2 h compound incubation), 7 nM.

Consider `Cc1ccc2[nH]ncc2c1-c1nc(-c2cccc(F)c2NCC(F)F)nc(C(N)=O)c1N` [Compound 435], for which the IC50 in assay [1] amounted to 4 nM; in assay [2] (2 h, 2 h compound incubation), 136 nM.

Take `Cc1ccc2[nH]ncc2c1-c1nc(-c2cccnc2N[C@H](c2cccnc2)C(F)F)nc(C(N)=O)c1N` [Compound 936]: the IC50 in assay [1] was 2 nM; in assay [2] (2 h, 2 hours with compound) it was 221 nM.

Regarding `CC1(C(=O)Nc2ccccc2-c2nc(C(N)=O)c(N)c(-c3c(Cl)ccc4[nH]ncc34)n2)CC1` [Compound 410], the 50% inhibitory concentration (IC50) was 4 nM in assay [1] and 9 nM in assay [2] (2 h, 2 h compound incubation).

On to `Cc1ccc2[nH]ncc2c1-c1nc(-c2ccc(S(C)(=O)=O)cc2NC2CCOCC2)nc(C(N)=O)c1N` [Compound 831], for which the IC50 in assay [1] was less than 3 nM; in assay [2] (2 h, 2 hours with compound), 118 nM.

As for `Cc1ccc2[nH]ncc2c1-c1cc(-c2cccc(OCc3cccnn3)n2)nc(C(N)=O)c1N` [Compound 242], the IC50 in assay [1] came out at 7 nM; in assay [2] (2 h, 2 h incubation), 243 nM.

On to `Cc1ccc2[nH]ncc2c1-c1cc(-c2cncs2)nc(C(N)=O)c1N` [Compound 85], for which the IC50 in assay [1] amounted to 22 nM; in assay [2] (2 h, 2 h incubation), 1450 nM.

On to `Cc1ccc(O)c(C)c1-c1cc(C2CC2)nc(C(N)=O)c1N` [Compound 54], for which the IC50 in assay [1] was determined as 18 nM; in assay [2] (2 h, 2 h incubation), 2410 nM.

With `Cc1ccc(O)c(C)c1-c1cc(-c2ccccn2)nc(C(N)=O)c1N` [Compound 19], the IC50 in assay [1] was 4 nM; in assay [2] (2 h, 2 h incubation), 14 nM.

For `Cc1cccc(-c2cc(-c3c(C)ccc(O)c3C)c(N)c(C(N)=O)n2)n1` [Compound 83], the IC50 in assay [1] was 6 nM; in assay [2] (2 h, 2 h incubation), 188 nM.

For the molecule `Cc1ccc2[nH]ncc2c1-c1cc(-c2ccnc(OC3CCCC3)n2)nc(C(N)=O)c1N` [Compound 170], the IC50 in assay [1] came to 23 nM; in assay [2] (2 h, 2 h incubation), 1100 nM.

With `Cc1ccc2[nH]ncc2c1-c1cc(-c2ccnc(OC3(C)COC3)n2)nc(C(N)=O)c1N` [Compound 220], the half-inhibitory concentration (IC50) in assay [1] worked out at 4 nM; in assay [2] (2 h, 2 h incubation), 150 nM.

`Cc1cccnc1Nc1ncccc1-c1nc(C(N)=O)c(N)c(-c2c(C)ccc3[nH]ncc23)n1` [Compound 622]: the concentration for half-maximal inhibition (IC50) in assay [1] was 4 nM; in assay [2] (2 h, 2 h compound incubation), 10 nM.

With `Cc1ccc2[nH]ncc2c1-c1cc(-c2ccnc(OCc3cccnc3)n2)nc(C(N)=O)c1N` [Compound 164], the IC50 was 14 nM in assay [1] and 473 nM in assay [2] (2 h, 2 h incubation).
